Experiment [1] has as its system Malassezia furfur. In words: Inhibition of Malassezia furfur growth test (optical density and colony-forming units), Examples 1 and 2. It is filed as cell-based. As to conditions: solution in DMSO, 25 μM; for colony-forming units: 10 μl plated out. The method, then: Growth medium: M472-Pitysporum medium according to DSMZ
(§1) The components were sterilized at 121° C., 1 bar superatmospheric pressure for 20 minutes.
2 g/l of olive oil were sterilized by filtration and, after autoclaving, added to the other components.
(§2) Since it was a two-phase medium, the complete medium was treated with sonication in order to enlarge the phase boundary.
For agar plates, if appropriate, […] of agar agar were added to the medium.
The growth test was carried out as follows: A shake flask with M472-Pitysporum medium was inoculated with M. furfur and incubated with shaking overnight at 30° C. and 200 rpm.
A 96-well microtiter plate was filled with in each case 100 μl of M472-Pitysporum medium and inoculated with M. furfur suspension of the overnight culture. The M. furfur suspension was adjusted at the start of the experiment to an optical density, measured at 620 nm, of 0.02. The concentrates of the inhibitor solutions were 1 mM in water or DMSO.
(§3) The growth of the following batches was compared by measuring the optical density:
M. furfur suspension without the addition of an inhibitor.
This was to exclude that an inhibition is attributable merely to the effect of the DMSO, or a false positive result being observed.
M. furfur suspension and addition of an aqueous P18 solution with a final concentration of 25 μM.
M. furfur suspension and addition of a P18 solution in DMSO with a final concentration of 25 μM.
M. furfur suspension and addition of a zinc pyrithione (ZPT, Sigma-Aldrich) solution in DMSO with a final concentration of 25 μM.
M. furfur suspension and addition of a Ketoconazole (Sigma-Aldrich) solution in DMSO with a final concentration of 25 μM.
(§4) The microtiter plate was incubated with shaking at 30° C.
[…] The colony-forming units (CFU) were then determined by plating out 10 μl from each of the suspensions and, after incubation for 6 days, counting the colonies. The CFU was determined in order to exclude an influence of the two-phase medium and also the growth form of M. furfur on the optical density. […] The experiments were carried out at least in triple determinations and independently repeated.
For this, the procedure was as described in Example 1. 1 mM stock solutions of the fusion peptide P18, magainin 2 and cecropin A in DMSO were prepared. The final concentrations of the peptides in the growth experiments were 25 μM. The same amount of DMSO was likewise added to the suspension without inhibitor in order to exclude a growth-inhibiting effect of the DMSO.
The growth of the following mixtures was compared by measuring the optical density:
This was to exclude that an inhibition is attributable merely to the effect of the DMSO.
M. furfur suspension and addition of a magainin 2 solution in DMSO with a final concentration of 25 μM.
M. furfur suspension and addition of a cecropin A solution in DMSO with a final concentration of 25 μM.
M. furfur suspension and addition of a peptide P18 (SEQ ID NO3) solution in DMSO with a final concentration of 25 μM.

The subject of experiment [2] is Malassezia furfur. In words: Growth inhibition of Malassezia furfur with equal concentrations (% by weight) of P18, Zincpyrithione, Climbazole and Ketoconazole, CFU. It is filed as cell-based. As to conditions: 362 μM final conc., mean ± SD. How it is done:
(§5) Growth medium: M472-Pityrosporum medium according to DSMZ
as §1
(§6) 2 g/L of olive oil (sterilized by filtration and, after autoclaving, added to the other components)
as §2
(§7) For agar plates, if appropriate, 150 g/L of agar agar were added to the medium.
(§8) The growth test was carried out as follows: A shake flask with M472-Pityrosporum medium was inoculated with M. furfur and incubated with shaking overnight at 30° C. and 200 rpm.
A 96-well microtiter plate was filled with in each case 100 μl of M472-Pityrosporum medium and inoculated with M. furfur suspension of the overnight culture. The M. furfur suspension was adjusted at the start of the experiment to an optical density, measured at 600 nm, of 0.02. The concentrates of the inhibitor solutions were 1 mM in DMSO for the peptide P18 and 10 mM in DMSO for Zincpyrithione, Ketoconazole and Climbazole. The DMSO final concentrations were maintained the same in all experiments. This means that a corresponding volume of DMSO was added to the mixture in the case of a higher concentration of Zincpyrithione, Ketoconazole or Climbazole concentrate in order to ensure comparability to the mixtures containing P18.
as §3
M. furfur suspension and addition of P18 solution with a final concentration of 50 μM (equal to 0.0115% (w/w))
M furfur suspension and addition of Zincpyrithione (ZPT) solution with a final concentration of 362 μM (comparison to the mixture containing 50 μM of the peptide P18)
M furfur suspension and addition of Ketoconazole solution with a final concentration of 216 μM (comparison to the mixture containing 50 μM of the peptide P18)
M furfur suspension and addition of Climbazole solution with a final concentration of 390 μM (comparison to the mixture containing 50 μM of the peptide P18)
as §4
After 24 hours of incubation, the colony-forming units (CFU) were determined by plating out 10 μl of medium from each of the suspensions on agar plates. After incubation for 6 days, the colonies on the plates were counted. The CFU was determined in order to exclude an influence of the two-phase medium and also the growth form of M. furfur on the optical density. The experiments were carried out in at least two independent experiments, each with double determination.

In experiment [3] the test system is Malassezia furfur. The experiment can be described thus: Incubation times with P18 from 5 minutes to 1 hour, CFU of M. furfur, compared to Zincpyrithione. It is filed as cell-based. How it is done:
Since growth inhibition of M. furfur by the peptide P18 (P18 peptide sequence H-KWKLFKKIPKFLHLAKKF-NH2; SEQ ID NO: 3) had so far only been analyzed over incubation times of more than one hour, now the effect of the peptide P18 within the first minutes of incubation (5 minutes, 10 minutes and 20 minutes) up to the first hour after adding to the M. furfur overnight culture was tested and compared to the reference substance Zincpyrithione (Sigma Aldrich). For this, the peptide P18 and the reference substance Zincpyrithione were used in concentrations of 100 μM, 200 μM and 500 μM. The experiments were carried out as follows:
as §5, §1, §6, §2, §7, §8
A 96-well microtiter plate was filled with in each case 100 μl of M472-Pityrosporum medium and inoculated with M. furfur suspension of the overnight culture. The M. furfur suspension was adjusted at the start of the experiment to an optical density, measured at 600 nm, of 0.1.
The growth of the following batches was compared:
M. furfur suspension and addition of the peptide P18 with a final concentration of 100 μM, plating out after 5 minutes, 10 minutes, 20 minutes and 60 minutes
M. furfur suspension and addition of the peptide P18 with a final concentration of 200 μM plating out after 5 minutes, 10 minutes, 20 minutes and 60 minutes
M. furfur suspension and addition of the peptide P18 with a final concentration of 500 μM plating out after 5 minutes, 10 minutes, 20 minutes and 60 minutes
M. furfur suspension and addition of Zincpyrithione with a final concentration of 100 μM plating out after 5 minutes, 10 minutes, 20 minutes and 60 minutes
M. furfur suspension and addition of Zincpyrithione with a final concentration of 200 μM plating out after 5 minutes, 10 minutes, 20 minutes and 60 minutes
M. furfur suspension and addition of Zincpyrithione with a final concentration of 500 μM plating out after 5 minutes, 10 minutes, 20 minutes and 60 minutes
as §4
After the incubation times indicated above, the colony-forming units (CFU) were determined by plating out 50 μl from each of the suspensions and, after incubation for 6 days, counting the colonies. The CFU was determined in order to exclude an influence of the two-phase medium and also the growth form of M. furfur on the optical density. The experiments were independently repeated.

For another experiment, the system named is Candida albicans. As to conditions: cited from earlier work.
Experiment [4] has as its system Malassezia furfur. As to conditions: cited from earlier work; for growth inhibition of M. furfur (in words): 25 μM, Lopez-Garcia et al., 2006.

Numbered stars: 1 amine (or outer) side, 2 acyl side, 3 side chain; on linkers, the order of the positions; unused ones are H or OH. Bridge positions count the residues as written; N and C are the ends. Square brackets hold non-standard residues; d marks the D form. Ends that are not written are not given here. Peptide text beside a SMILES is read from it. * marks the point of attachment. Orn(4R-OH,5R-OH) = O=C([C@H](C[C@@H](O)[C@@H](O)N[*:3])N[*:1])[*:2]; hTyr(3S-OH,4S-OH) = N[C@H](C(=O)O)[C@H](O)[C@@H](O)c1ccc(O)cc1; Pro(3S-OH,4S-Me) = C[C@H]1CN[C@H](C(=O)O)[C@H]1O; Benzoyl(4-octyloxy) = CCCCCCCCOc1ccc(C(=O)*)cc1; Hyp = O=C(O)[C@@H]1C[C@@H](O)CN1

The source of these data is US8765688B2, “Anti-dandruff compositions containing peptides” (priority 2007, dated 2014).

In the case of “cecropin A (KWKLFKKIEKVGQNIRDGIIKAGPAVAVVGQATQIAK; ends and bridges not checked; UniProt P01507 27-63, looked up) [peptide of 37 amino acids from Hyalophora cecropia, reference compound]”, the CFU in the experiment on Malassezia furfur [1] (incubation time 64 h) and with Malassezia furfur [1] (incubation time 72 h) was more than 5000 each time.

As to “zinc pyrithione [ZPT, reference compound]”, the optical density in the experiment on Malassezia furfur [1] (incubation time 0 h), in the experiment with Malassezia furfur [1] (incubation time 16 h), with Malassezia furfur [1] (incubation time 24 h) and in the experiment on Malassezia furfur [1] (incubation time 40 h) was 0 each time. Moreover, the colony-forming units in the experiment on Malassezia furfur [1] (incubation time 16 h) was 42; in the experiment with Malassezia furfur [1] (incubation time 24 h) it was 22; with Malassezia furfur [1] (incubation time 40 h) it was 28; in the experiment on Malassezia furfur [2] (incubation time 24 h), 60 ± 40; with Malassezia furfur [2] (incubation time 40 h), 26 ± 7. Also, the “colony-forming units after the indicated incubation time” value with Malassezia furfur [3] (final concentration 100 μM, 5 minutes) was more than 1000; in the experiment on Malassezia furfur [3] (final concentration 100 μM, 10 minutes), more than 1000; in the experiment with Malassezia furfur [3] (final concentration 100 μM, 20 minutes), more than 1000; in the experiment with Malassezia furfur [3] (final concentration 100 μM, 60 minutes), more than 1000; in the experiment with Malassezia furfur [3] (final concentration 200 μM, 5 minutes), more than 1000; with Malassezia furfur [3] (final concentration 200 μM, 10 minutes), more than 1000. In addition, the “colony-forming units after the indicated incubation time” value in the experiment on Malassezia furfur [3] (final concentration 200 μM, 20 minutes) is more than 1000; in the experiment with Malassezia furfur [3] (final concentration 200 μM, 60 minutes) it was more than 1000; in the experiment on Malassezia furfur [3] (final concentration 500 μM, 5 minutes) it was more than 1000; with Malassezia furfur [3] (final concentration 500 μM, 10 minutes), more than 1000; with Malassezia furfur [3] (final concentration 500 μM, 20 minutes), more than 1000; in the experiment on Malassezia furfur [3] (final concentration 500 μM, 60 minutes) it was more than 1000.

On to phytosphingosines, for which the “concentrations inhibiting Candida albicans” value with Candida albicans (Nenoff et al., 2002) was 152 to 269 µg/mL.

As for `CCCCCCCCOc1ccc(C(=O)N[C@H]2C[C@@H](O)[C@@H](O)NC(=O)[C@@H]3[C@@H](O)[C@@H](C)CN3C(=O)[C@H]([C@@H](C)O)NC(=O)[C@H]([C@H](O)[C@@H](O)c3ccc(O)cc3)NC(=O)[C@@H]3C[C@@H](O)CN3C(=O)[C@H]([C@@H](C)O)NC2=O)cc1` [cilofungin] ({Benzoyl(4-octyloxy)}-[Orn(4R-OH,5R-OH)]T[Hyp][hTyr(3S-OH,4S-OH)]T[Pro(3S-OH,4S-Me)]; lactam 1-C), the “inhibition of M. furfur (in words)” value in the experiment on Malassezia furfur [4] (0.62 μg/ml, Hanson et al. 1989) is reported as “not inhibited”. In the experiment on Candida albicans (cilofungin concentration of 0.62 μg/ml, Hanson et al. 1989), the “C. albicans strains that did not grow” value is listed as 76%.

For the compound “Cecropin P1 (SWLSKTAKKLENSAKKRISEGIAIAIQGGPR; Cecropin-P1; UniProt P14661 14-44, looked up)”, the “growth inhibition of M. furfur (in words)” value with Malassezia furfur [4] is “moderate antifungal effect”.

As to `CC(=O)N1CCN(c2ccc(OCC3COC(Cn4ccnc4)(c4ccc(Cl)cc4Cl)O3)cc2)CC1` (stereo not drawn) [Ketoconazole, reference compound], the optical density in the experiment with Malassezia furfur [1] (incubation time 0 h) turned out to be 0; in the experiment with Malassezia furfur [1] (incubation time 16 h) it was 0; with Malassezia furfur [1] (incubation time 24 h) it was 0.004; in the experiment with Malassezia furfur [1] (incubation time 40 h), 0.013. Besides, the colony-forming units came out at 80 in the experiment with Malassezia furfur [1] (incubation time 16 h), 22 with Malassezia furfur [1] (incubation time 24 h) and 90 in the experiment with Malassezia furfur [1] (incubation time 40 h).

As to basic phytosphingosines, the “concentration inhibiting M. furfur” value with Malassezia furfur [4] (Nenoff et al., 2002) was 6250 µg/mL.

For phytosphingosine salts, the “sensitivity of M. furfur (in words)” value with Malassezia furfur [4] (Nenoff et al., 2002) is “appeared to be resistant”.

On to magainin 2 [reference compound], for which, in the experiment on Malassezia furfur [4], the “growth inhibition of M. furfur (in words)” value is given as “comparably better effect”. Moreover, the CFU with Malassezia furfur [1] (incubation time 64 h) and with Malassezia furfur [1] (incubation time 72 h) was >10 000 in each case.
